In article PMC3919520 (Bioorganic & medicinal chemistry, 2013):
Entries after “also recorded” stand apart in the source; their conditions may differ.

What was measured:
BoNT/A = BoNT/A (Clostridium botulinum, UniProt P0DPI1); type: cell-based, C. botulinum
BoNT/A, sequence (P0DPI1 2-448 limits assumed): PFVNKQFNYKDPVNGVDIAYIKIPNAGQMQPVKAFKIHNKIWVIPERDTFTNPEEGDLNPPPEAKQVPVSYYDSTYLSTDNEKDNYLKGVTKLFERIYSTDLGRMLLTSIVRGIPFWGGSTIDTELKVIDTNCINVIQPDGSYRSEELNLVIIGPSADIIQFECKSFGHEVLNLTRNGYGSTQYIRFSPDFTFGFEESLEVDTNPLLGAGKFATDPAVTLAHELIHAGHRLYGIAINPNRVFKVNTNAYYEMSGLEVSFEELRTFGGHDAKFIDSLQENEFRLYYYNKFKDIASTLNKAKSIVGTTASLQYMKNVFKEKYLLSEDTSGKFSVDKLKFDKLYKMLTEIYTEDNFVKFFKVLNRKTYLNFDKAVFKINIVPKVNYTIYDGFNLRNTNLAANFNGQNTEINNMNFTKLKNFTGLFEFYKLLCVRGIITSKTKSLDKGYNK

Row | SMILES | Inhibition / protection of SNAP-25 from the neurotoxin (result in words) (BoNT/A) | Cytotoxicity (hiPSC-derived neurons; at 150 µM) | Inhibition (BoNT/A) | Cytotoxicity (result in words) (hiPSC-derived neurons)
1 | O=C(/C=C/c1ccc(Cl)cc1Cl)NOC(=O)NCc1ccccc1 [compound 1, (E)-N-((benzylcarbamoyl)oxy)-3-(2,4-dichlorophenyl)acrylamide] | ineffective inhibitors | cytotoxic at 150 µM ^a | – | –
2 | O=C(CC(CCO)c1ccc(Cl)cc1Cl)NOC(=O)NCc1ccccc1 (centres unmarked) [compound 2, N-((benzylcarbamoyl)oxy)-3-(2,4-dichlorophenyl)-5-hydroxypentanamide] | ineffective inhibitors | – | no inhibition; also recorded: partial inhibition at 300 µM | did not show cytotoxicity
